In ChEMBL document CHEMBL2401710, “Design, synthesis and structure-activity relationships of zwitterionic spirocyclic compounds as potent CCR1 antagonists” (Bioorg Med Chem Lett, 2013):

Test: Half life in rat at 5 mg/kg, iv
Assay type: ADME, organism-based
Parameters: dose 5 mg/kg, route intravenous
Settings: in vivo

half-life	Structure (SMILES)
2.1 h	CN(C)CC(C)(C)COc1cccc(-c2sc(Nc3cccnc3Oc3ccccc3C(C)(C)C)nc2C(F)(F)F)c1

Test: Antiplatelet activity in human platelet-rich plasma assessed as inhibition of ADP-induced platelet aggregation
Assay type: functional, cell-free
Settings: not given

IC50	Structure (SMILES)
5.2 µM	CC(C)(C)c1ccccc1Oc1ncccc1Nc1nc(C(F)(F)F)c(-c2ccccc2)s1

Test: Antiplatelet activity in human platelet-rich plasma assessed as ADP-induced platelet aggregation at 10 uM relative to control
Assay type: functional
Settings: not given

Structure (SMILES)	Activity
Cc1ccc(-c2sc(Nc3cccnc3Oc3ccccc3C(C)(C)C)nc2C(F)(F)F)cc1	32%
CC(C)(C)c1ccccc1Oc1ncccc1Nc1ncc(-c2ccccc2)s1	87%
COc1ccc(-c2sc(Nc3cccnc3Oc3ccccc3C(C)(C)C)nc2C(F)(F)F)cc1	30%
CN(C)CC(C)(C)COc1cccc(-c2sc(Nc3cccnc3Oc3ccccc3C(C)(C)C)nc2C(F)(F)F)c1	17%
CCc1nc(Nc2cccnc2Oc2ccccc2C(C)(C)C)sc1-c1ccccc1	78%
Cc1noc(-c2sc(Nc3cccnc3Oc3ccccc3C(C)(C)C)nc2C(F)(F)F)n1	56%
CC(C)(C)c1ccccc1Oc1ncccc1Nc1nc(C(F)(F)F)c(-c2cccc(O)c2)s1	98%
Cc1ccccc1-c1sc(Nc2cccnc2Oc2ccccc2C(C)(C)C)nc1C(F)(F)F	54%
CC(C)(C)c1ccccc1Oc1ncccc1Nc1nc(C(F)(F)F)c(C#N)s1	101%
CC(C)(C)c1ccccc1Oc1ncccc1Nc1nc(C(C)(C)C)c(-c2ccccc2)s1	86%
CC(C)(C)c1ccccc1Oc1ncccc1Nc1nc(C(F)(F)F)c(-c2ccc(C#N)cc2)s1	79%
CC(C)(C)c1ccccc1Oc1ncccc1Nc1nc(C(F)(F)F)c(-c2ccccc2F)s1	41%
COc1cccc(-c2sc(Nc3cccnc3Oc3ccccc3C(C)(C)C)nc2C(F)(F)F)c1	41%
CC(C)(C)c1ccccc1Oc1ncccc1Nc1nc(C(F)(F)F)c(-c2ccccc2)s1	61%
Cc1sc(Nc2cccnc2Oc2ccccc2C(C)(C)C)nc1C(F)(F)F	96%
CN(C)C(=O)c1nc(Nc2cccnc2Oc2ccccc2C(C)(C)C)sc1-c1ccccc1	100%
CC(C)(C)c1ccccc1Oc1ncccc1Nc1nc(C(F)(F)F)c(-c2ccccc2O)s1	99%
CCOC(=O)c1sc(Nc2cccnc2Oc2ccccc2C(C)(C)C)nc1C(F)(F)F	50%
CC(C)(C)c1ccccc1Oc1ncccc1Nc1nc(C(F)(F)F)c(-c2ccc(OC(F)(F)F)cc2)s1	85%
CC(C)(C)c1ccccc1Oc1ncccc1Nc1nc(C(C)(C)CC(=O)O)c(-c2ccccc2)s1	89%
